# Measurements taken from patent US12624044B2, “SMARCA degraders and uses thereof” (Kymera Therapeutics, Inc., priority 2019, dated 2026).
# Structures can show the parent of a compound that is named as a salt.
# Columns and labels:
# SMARCA2 [1] = target: T1, SMARCA2 (Homo sapiens, UniProt P51531); assay: MSD SMARCA2 degradation in NCI-H1299 cell line (24 h); assay type: cell-based; design: HC: NCI-H1299 cells treated with DMSO; host or cells: NCI-H1299; settings: for DC50: NCI-H1299 cells, read-out: SMARCA2 MSD H1299 degradation 24 h: External Abs-DC50; for Dmax: NCI-H1299, NCI-H1299 cells
# T1 sequence (P51531 whole entry): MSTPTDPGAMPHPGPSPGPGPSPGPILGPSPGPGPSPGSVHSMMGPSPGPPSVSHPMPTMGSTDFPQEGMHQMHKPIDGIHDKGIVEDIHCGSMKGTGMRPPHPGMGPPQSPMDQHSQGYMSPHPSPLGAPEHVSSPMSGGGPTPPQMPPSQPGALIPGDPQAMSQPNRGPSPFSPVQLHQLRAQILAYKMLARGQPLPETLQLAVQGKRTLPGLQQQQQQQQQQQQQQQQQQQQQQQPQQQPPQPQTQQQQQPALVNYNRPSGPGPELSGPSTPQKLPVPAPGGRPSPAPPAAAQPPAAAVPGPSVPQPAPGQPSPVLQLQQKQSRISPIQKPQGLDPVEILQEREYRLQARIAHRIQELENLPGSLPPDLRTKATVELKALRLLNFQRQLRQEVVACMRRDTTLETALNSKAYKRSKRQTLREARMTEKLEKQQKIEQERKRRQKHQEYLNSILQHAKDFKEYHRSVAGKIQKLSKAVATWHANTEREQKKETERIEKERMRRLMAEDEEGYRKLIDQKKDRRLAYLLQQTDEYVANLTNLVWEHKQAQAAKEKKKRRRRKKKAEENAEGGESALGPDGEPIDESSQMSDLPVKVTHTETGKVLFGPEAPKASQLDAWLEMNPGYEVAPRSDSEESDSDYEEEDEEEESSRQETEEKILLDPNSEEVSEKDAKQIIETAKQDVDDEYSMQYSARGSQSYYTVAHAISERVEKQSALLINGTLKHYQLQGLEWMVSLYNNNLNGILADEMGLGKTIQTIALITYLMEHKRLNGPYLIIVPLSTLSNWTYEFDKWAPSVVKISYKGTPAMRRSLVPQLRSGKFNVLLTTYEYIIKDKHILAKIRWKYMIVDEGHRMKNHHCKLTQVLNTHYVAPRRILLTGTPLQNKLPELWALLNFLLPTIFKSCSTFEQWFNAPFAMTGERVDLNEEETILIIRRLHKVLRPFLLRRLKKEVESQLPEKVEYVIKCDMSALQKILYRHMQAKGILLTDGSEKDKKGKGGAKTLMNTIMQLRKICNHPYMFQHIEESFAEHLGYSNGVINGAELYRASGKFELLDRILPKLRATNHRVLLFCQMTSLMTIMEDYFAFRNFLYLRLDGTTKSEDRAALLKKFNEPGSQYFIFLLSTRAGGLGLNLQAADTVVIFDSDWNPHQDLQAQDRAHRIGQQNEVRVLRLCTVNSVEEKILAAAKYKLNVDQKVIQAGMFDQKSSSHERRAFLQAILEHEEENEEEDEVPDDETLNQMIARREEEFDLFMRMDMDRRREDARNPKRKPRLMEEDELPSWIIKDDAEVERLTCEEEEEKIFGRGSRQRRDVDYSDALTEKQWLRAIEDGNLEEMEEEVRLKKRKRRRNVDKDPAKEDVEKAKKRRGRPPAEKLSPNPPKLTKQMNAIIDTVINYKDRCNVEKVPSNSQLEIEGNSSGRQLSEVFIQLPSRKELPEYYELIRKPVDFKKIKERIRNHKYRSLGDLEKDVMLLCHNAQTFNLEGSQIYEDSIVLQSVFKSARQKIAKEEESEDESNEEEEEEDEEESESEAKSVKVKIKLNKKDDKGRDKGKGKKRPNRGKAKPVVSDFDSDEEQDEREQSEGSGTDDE
# In short: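 NCI-H1299 cells treated 24 h with a 3-fold, 9-point compound dilution series, then lysed in RIPA with protease inhibitor. SMARCA2 in lysate-coated MSD plates detected with rabbit anti-SMARCA2 (0.3 ug/ml) and SULFO-TAG secondary. Relative SMARCA2 level normalized between DMSO-treated H1299 cells and SMARCA2-negative A2780 cells; Dmax % binned A–D.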
# SMARCA2 [2] = target: T1, SMARCA2; assay: MSD SMARCA2 degradation in A549 cell line; assay type: cell-based; settings: 24 h; for Dmax: A549, A549 cells; for DC50: A549 cells, read-out: SMARCA2 MSD A549 degradation 24 h: Average external-Abs DC50
# Description: Cells were seeded into 96-well plates (A549 cells: 2×10^4 cells/well/100 ul media) abd incubated overnight. The next day, 200 nl compound were added into the intermediate plate with Echo (Labcyte 550) from source plate containing a 3-fold serial dilution from top concentration of 1 mM. The culture medium was changed with 80 ul of fresh medium and 80 ul of 2× compound solution was added into the well to make a final concentration of 1000 nM, 333.3 nM, 111.1 nM, 37.04 nM, 12.35 nM, 4.115 nM, 1.372 nM, 0.457 nM, 0.152 nM and 0 nM (DMSO). The wells were mixed and then incubated for 24 hours. The media was aspirated from the cultures and 60 ul pre-chilled PIPA lysis buffer (Boston BioProducts BP-115D) with protease/phosphatase inhibitor (Roche 05892791001/Roche 04906837001) was added into the well to lyze the cells for 20 minutes at 4° C. The MSD plate (L15XA) was coated with 40 ul cell lysate and incubated at 4° C. overnight. The next day, the plate was washed three times with TBST (CST #9997S), 150 ul/well. The MSD plates was blocked with 150 ul blocking buffer per well and shaked for 1 hr at RT, 600 rpm. The blocking buffer was 3% Blocker A (MSD, R93BA-4) in TBST. The MSD plate was washed three times with 150 ul/well of TBST and 25 ul/well of detection antibody (Rabbit anti-SMARCA2/BRM antibody, 100 μg/ml, ab223735) was added at final concentration of 1 ug/ml diluted in 1% Blocking buffer and shaken for 1 hour at RT, 600 rpm. The MSD plate was washed three times with 150 ul/well of TBST and 25 ul/well of SULFO-TAG anti-rabbit antibody (MSD, R32AB-1) was added at final concentration of 1 ug/ml diluted in 1% Blocking buffer and shaken for 1 hour at RT, 600 rpm. The MSD plate was washed three times with 150 ul/well of TBST and 150 ul/well of 2×MSD reading buffer diluted from 4× (MSD, R92TC-2) with water was added. Lastly, the MSD instrument was read.
# The letter codes for the percentage of SMARCA2 degradation after 24 hours (Dmax %) include: A (>90% degradation), B (>70-90% degradation), C (50-70% degradation), and D (<50% degradation).
DC50 (SMARCA2 [1]) [nM],Dmax (SMARCA2 [1]) [%],Dmax (SMARCA2 [2]) [%],DC50 (SMARCA2 [2]) [nM],SMILES
> 1000,–,–,–,"COc1cc(C(=O)NCCCNCc2ccc(N3CCN(c4cc(-c5ccccc5O)nnc4N)CC3)cc2)ccc1NC(=O)[C@@H]1N[C@@H](CC(C)(C)C)[C@](C#N)(c2ccc(Cl)cc2F)[C@H]1c1cccc(Cl)c1F [I-238, (2R,3S,4R,5S)—N-(4-((3-((4-(4-(3-amino-6-(2-hydroxyphenyl)pyridazin-4-yl)piperazin-1-yl)benzyl)amino)propyl)carbamoyl)-2-methoxyphenyl)-3-(3-chloro-2-fluorophenyl)-4-(4-chloro-2-fluorophenyl)-4-cyano-5-neopentylpyrrolidine-2-carboxamide hydrochloride]"
–,–,< 50,> 1000,"Cn1c(=O)n(C2CCC(=O)NC2=O)c2ccc(CCCCCCCCCNCc3cccc(C#Cc4cc(NC(=O)Nc5cc(F)ncc5CO)ccn4)c3)cc21 (stereo not shown) [I-302, 1-(2-((3-(((9-(1-(2,6-dioxopiperidin-3-yl)-3-methyl-2-oxo-2,3-dihydro-1H-benzo[d]imidazol-5-yl)nonyl)amino)methyl)phenyl)ethynyl)pyridin-4-yl)-3-(2-fluoro-5-(hydroxymethyl)pyridin-4-yl)urea]"
–,–,< 50,> 1000,Cn1c(=O)n(C2CCC(=O)NC2=O)c2ccc(CCCCCCCCCNCc3ccc(C#Cc4cc(NC(=O)Nc5cc(F)ncc5CO)ccn4)cc3)cc21 (stereo not shown) [I-303]
–,–,< 50,> 1000,CN(CCCOCCCc1cccc2c1n(C)c(=O)n2C1CCC(=O)NC1=O)Cc1ccc(C#Cc2cc(NC(=O)Nc3cc(F)ncc3CO)ccn2)cc1 (stereo not shown) [I-304]
–,–,< 50,> 1000,Cn1c(=O)n(C2CCC(=O)NC2=O)c2cccc(CN3CCC(OC4CCN(Cc5ccc(C#Cc6cc(NC(=O)Nc7cc(F)ncc7CO)ccn6)cc5)CC4)CC3)c21 (stereo not shown) [I-305]
–,–,< 50,> 1000,Cn1c(=O)n(C2CCC(=O)NC2=O)c2ccc(CCCOCCCCN3CCN(Cc4ccc(C#Cc5cc(NC(=O)Nc6cc(F)ncc6CO)ccn5)cc4)CC3)cc21 (stereo not shown) [I-306]
–,–,< 50,> 1000,Cn1c(=O)n(C2CCC(=O)NC2=O)c2cccc(CCCOC3CCN(Cc4ccc(C#Cc5cc(NC(=O)Nc6cc(F)ncc6CO)ccn5)cc4)CC3)c21 (stereo not shown) [I-307]
–,–,< 50,> 1000,CN(Cc1ccc(C#Cc2cc(NC(=O)Nc3cc(F)ncc3CO)ccn2)cc1)CC1CCN(Cc2cccc3c2n(C)c(=O)n3C2CCC(=O)NC2=O)CC1 (stereo not shown) [I-308]
–,–,< 50,> 1000,O=C1CCC(n2c(=O)oc3c(CCCOC4CCN(Cc5ccc(C#Cc6cc(NC(=O)Nc7cc(F)ncc7CO)ccn6)cc5)CC4)cccc32)C(=O)N1 (stereo not shown) [I-309]
–,–,< 50,> 1000,CN(Cc1ccc(C#Cc2cc(NC(=O)Nc3cc(F)ncc3CO)ccn2)cc1)C1CCN(Cc2cccc3c2n(C)c(=O)n3C2CCC(=O)NC2=O)CC1 (stereo not shown) [I-310]
–,–,< 50,> 1000,CN(Cc1ccc(C#Cc2cc(NC(=O)Nc3cc(F)ncc3CO)ccn2)cc1)C1CCN(C(=O)c2cccc3c2n(C)c(=O)n3C2CCC(=O)NC2=O)CC1 (stereo not shown) [I-311]

# Continued, compound first:
SMILES,DC50 (SMARCA2 [1]) [nM],Dmax (SMARCA2 [1]) [%],Dmax (SMARCA2 [2]) [%],DC50 (SMARCA2 [2]) [nM]
Cc1ncsc1-c1ccc(CNC(=O)[C@@H]2C[C@@H](O)CN2C(=O)[C@@H](NC(=O)COCCOCCOCCOCCOCCNC(=O)CCCCCCCCOc2ccnc(N3C[C@H]4C[C@@H]3CN4/C=C/C(=O)c3ccccc3O)c2)C(C)(C)C)cc1 [I-222],> 1000,–,–,–
Cc1ncsc1-c1ccc(CNC(=O)[C@@H]2C[C@@H](O)CN2C(=O)[C@@H](NC(=O)COCCOCCOCCOCCNC(=O)CCCCCCCCOc2ccnc(N3C[C@H]4C[C@@H]3CN4/C=C/C(=O)c3ccccc3O)c2)C(C)(C)C)cc1 [I-223],> 1000,–,–,–
Cc1ncsc1-c1ccc(CNC(=O)[C@@H]2C[C@@H](O)CN2C(=O)[C@@H](NC(=O)COCCOCCOCCNC(=O)c2ccc(C(C)n3cc(-c4cc(-c5ccccc5O)nnc4N)cn3)cc2)C(C)(C)C)cc1 (stereo partly shown) [I-224],> 1000,–,–,–
Cc1ncsc1-c1ccc(CNC(=O)[C@@H]2C[C@@H](O)CN2C(=O)[C@@H](NC(=O)COCCOCCOCCOCCOCCOCCNC(=O)c2ccc(C(C)n3cc(-c4cc(-c5ccccc5O)nnc4N)cn3)cc2)C(C)(C)C)cc1 (stereo partly shown) [I-225],> 1000,–,–,–
Cc1ncsc1-c1ccc(CNC(=O)[C@@H]2C[C@@H](O)CN2C(=O)[C@@H](NC(=O)COCCOCCOCCOCCOCCNC(=O)c2ccc(C(C)n3cc(-c4cc(-c5ccccc5O)nnc4N)cn3)cc2)C(C)(C)C)cc1 (stereo partly shown) [I-226],> 1000,–,–,–
Cc1ncsc1-c1ccc(CNC(=O)[C@@H]2C[C@@H](O)CN2C(=O)[C@@H](NC(=O)COCCOCCOCCOCCNC(=O)c2ccc(C(C)n3cc(-c4cc(-c5ccccc5O)nnc4N)cn3)cc2)C(C)(C)C)cc1 (stereo partly shown) [I-227],> 1000,–,–,–
Cc1ncsc1-c1ccc(CNC(=O)[C@@H]2C[C@@H](O)CN2C(=O)[C@@H](NC(=O)COCCOCCOCCNC(=O)CCCCCCCCOc2ccc(N3C[C@H]4C[C@@H]3CN4/C=C/C(=O)c3ccccc3O)nc2)C(C)(C)C)cc1 [I-228],> 1000,–,–,–
Cc1ncsc1-c1ccc(CNC(=O)[C@@H]2C[C@@H](O)CN2C(=O)[C@@H](NC(=O)COCCOCCOCCOCCOCCOCCNC(=O)CCCCCCCCOc2ccc(N3C[C@H]4C[C@@H]3CN4/C=C/C(=O)c3ccccc3O)nc2)C(C)(C)C)cc1 [I-229],> 1000,–,–,–
Cc1ncsc1-c1ccc(CNC(=O)[C@@H]2C[C@@H](O)CN2C(=O)[C@@H](NC(=O)COCCOCCOCCOCCOCCNC(=O)CCCCCCCCOc2ccc(N3C[C@H]4C[C@@H]3CN4/C=C/C(=O)c3ccccc3O)nc2)C(C)(C)C)cc1 [I-230],> 1000,–,–,–
Cc1ncsc1-c1ccc(CNC(=O)[C@@H]2C[C@@H](O)CN2C(=O)[C@@H](NC(=O)COCCOCCOCCOCCNC(=O)CCCCCCCCOc2ccc(N3C[C@H]4C[C@@H]3CN4/C=C/C(=O)c3ccccc3O)nc2)C(C)(C)C)cc1 [I-231],> 1000,–,–,–
"COc1cc(C(=O)NCCCN2CCN(Cc3ccc(-c4cc(-c5ccccc5O)nnc4N)cc3)CC2)ccc1NC(=O)[C@@H]1N[C@@H](CC(C)(C)C)[C@](C#N)(c2ccc(Cl)cc2F)[C@H]1c1cccc(Cl)c1F [I-232, (2R,3S,4R,5S)—N-(4-((3-(4-(4-(3-amino-6-(2-hydroxyphenyl)pyridazin-4-yl)benzyl)piperazin-1-yl)propyl)carbamoyl)-2-methoxyphenyl)-3-(3-chloro-2-fluorophenyl)-4-(4-chloro-2-fluorophenyl)-4-cyano-5-neopentylpyrrolidine-2-carboxamide]",> 1000,< 50,–,–
"COc1cc(C(=O)NCCCCCCCCCN2CCN(Cc3ccc(-c4cc(-c5ccccc5O)nnc4N)cc3)CC2)ccc1NC(=O)[C@@H]1N[C@@H](CC(C)(C)C)[C@](C#N)(c2ccc(Cl)cc2F)[C@H]1c1cccc(Cl)c1F [I-233, (2R,3S,4R,5S)—N-[4-[9-[4-[[4-[3-amino-6-(2-hydroxyphenyl)pyridazin-4-yl]phenyl]methyl]piperazin-1-yl]nonylcarbamoyl]-2-methoxy-phenyl]-3-(3-chloro-2-fluoro-phenyl)-4-(4-chloro-2-fluoro-phenyl)-4-cyano-5-(2,2-dimethylpropyl)pyrrolidine-2-carboxamide]",> 1000,< 50,–,–
COc1cc(C(=O)NCCCCCCCCCCCNCc2ccc(N3CCN(c4cc(-c5ccccc5O)nnc4N)CC3)cc2)ccc1NC(=O)[C@@H]1N[C@@H](CC(C)(C)C)[C@](C#N)(c2ccc(Cl)cc2F)[C@H]1c1cccc(Cl)c1F [I-234],> 1000,50 to 70,–,–
COc1cc(C(=O)NCCCCCCCCCNCc2ccc(N3CCN(c4cc(-c5ccccc5O)nnc4N)CC3)cc2)ccc1NC(=O)[C@@H]1N[C@@H](CC(C)(C)C)[C@](C#N)(c2ccc(Cl)cc2F)[C@H]1c1cccc(Cl)c1F [I-235],> 1000,< 50,–,–
COc1cc(C(=O)NCCCCCCCNCc2ccc(N3CCN(c4cc(-c5ccccc5O)nnc4N)CC3)cc2)ccc1NC(=O)[C@@H]1N[C@@H](CC(C)(C)C)[C@](C#N)(c2ccc(Cl)cc2F)[C@H]1c1cccc(Cl)c1F [I-236],> 1000,< 50,–,–
COc1cc(C(=O)NCCCCCNCc2ccc(N3CCN(c4cc(-c5ccccc5O)nnc4N)CC3)cc2)ccc1NC(=O)[C@@H]1N[C@@H](CC(C)(C)C)[C@](C#N)(c2ccc(Cl)cc2F)[C@H]1c1cccc(Cl)c1F [I-237],> 1000,< 50,–,–
